Biological target: T1, Human HPK1, catalytic domain (Homo sapiens, UniProt Q92918)
T1 sequence (Q92918 1-346): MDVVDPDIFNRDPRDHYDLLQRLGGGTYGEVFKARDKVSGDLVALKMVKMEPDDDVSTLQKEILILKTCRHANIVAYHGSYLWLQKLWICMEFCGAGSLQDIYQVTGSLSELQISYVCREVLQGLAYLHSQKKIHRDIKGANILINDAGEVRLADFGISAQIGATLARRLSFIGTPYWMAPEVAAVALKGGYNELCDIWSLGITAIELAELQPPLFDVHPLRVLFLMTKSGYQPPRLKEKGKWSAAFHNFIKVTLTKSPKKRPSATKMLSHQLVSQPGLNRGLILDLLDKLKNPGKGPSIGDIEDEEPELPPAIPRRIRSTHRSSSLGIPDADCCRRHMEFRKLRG
Test: HPK1-SLP76 TR-FRET Assay
Format: biochemical
Details: 75 pM HPK1, ATP 10 uM, SLP76 10 nM, 30 min pre-incubation, 60 min reaction

IC50 | SMILES
0.0812 nM | CNC(=O)C(C)(C)c1ccc(Nc2ncc3c(N)c(F)c(-c4cnc5c(c4C)NCCO5)cc3n2)cc1 [Compound 2-187, 2-(4-{[5-amino-6-fluoro-7-(8-methyl-2,3-dihydro-1H-pyrido[2,3-b][1,4]oxazin-7-yl)quinazolin-2-yl]amino}phenyl)-N,2-dimethylpropanamide]
82.4 nM | COc1cc2c(cc1Nc1ncc3ccc(N4CC(CN)OC4=O)cc3n1)CN(C)CC2 (racemic) [Compound 3-11, (S and R)-5-(aminomethyl)-3-{2-[(6-methoxy-2-methyl-1,2,3,4-tetrahydroisoquinolin-7-yl)amino]quinazolin-7-yl}-1,3-oxazolidin-2-one]
1.32 nM | Cc1c(-c2c(F)c(N)c3cnc(Nc4ccc(CS(C)(=O)=O)cc4)nc3c2Cl)cnc2c1NCCO2 [Compound 2-91, (+ or −)-8-chloro-6-fluoro-7-(8-methyl-2,3-dihydro-1H-pyrido[2,3-b][1,4]oxazin-7-yl)-N~2~- {4-[(methylsulfonyl)methyl]phenyl}quinazoline-2,5-diamine]
294 nM | COc1cc2c(cc1Nc1ncc3ccc(NC4(C(=O)N(C)C)CC4)cc3n1)CN(C)CC2 [Compound 3-66, 1-({2-[(6-methoxy-2-methyl-1,2,3,4-tetrahydroisoquinolin-7-yl)amino]quinazolin-7-yl}-amino)-N,N-dimethylcyclopro-pane-1-carboxamide]
0.12 nM | Cc1c(-c2cc3nc(Nc4ccc(CS(=O)(=O)N5CCCC5)cc4)ncc3c(N)c2F)cnc2c1NCCO2 [Compound 2-115, 6-fluoro-7-(8-methyl-2,3-dihydro-1H-pyrido[2,3-b][1,4]oxazin-7-yl)-N~2~- {4-[(pyrrolidine-1-sulfonyl)methyl]phenyl} quinazoline-2,5-diamine]
0.169 nM | C[C@H]1COC(=O)N1c1cc(N)c2cnc(Nc3ccc(CS(C)(=O)=O)cc3)nc2c1 [Compound 3-78, (S)-3-(5-amino-2-((4-((methyl-sulfonyl)methyl)phenyl)amino)-quinazolin-7-yl)-4-methyloxa-zolidin-2-one]
258 nM | COc1cc2c(cc1Nc1ncc3ccc(Oc4cn[nH]c4)cc3n1)CN(C)CC2 [Compound 4-5, N-(6-methoxy-2-methyl-1,2,3,4-tetrahydroisoquin-olin-7-yl)-7-[(1H-pyrazol-4-yl)oxy]quinazolin-2-amine]
0.0199 nM | Cc1c(-c2c(F)c(N)c3cnc(Nc4ccc5c(c4)CN(C)CC54CC4)nc3c2Br)cnc2c1NCCO2 [Compound 2-111, (+ or −)-8-bromo-6-fluoro-7-(8-methyl-2,3-dihydro-1H-pyrido[2,3-b][1,4]oxazin-7-yl)-N~2~- (2′-methyl-2′,3′-dihydro-1′H-spiro[cyclopropane-1,4′-isoquinolin]-7′-yl)quinazoline-2,5-diamine]
403 nM | COc1cc2c(cc1Nc1ncc3ccc(-c4ccc(F)cc4CN)cc3n1)CN(C)CC2 [Compound 1-8, 7-[2-(aminomethyl)-4-fluorophenyl]-N-(6-methoxy-2-methyl-1,2,3,4-tetrahydroisoquinolin-7-yl)quinazolin-2-amine]
0.0471 nM | Cc1c(N)cncc1-c1cc2nc(Nc3ccc4c(c3)CN(C)CC43CC3)ncc2c(N)c1F [Compound 2-153, 7-(5-amino-4-methylpyridin-3-yl)-6-fluoro-N~2~-(2′-methyl-2′,3′-dihydro-1′H-spiro[cyclopropane-1,4′-isoquinolin]-7′-yl)quinazoline-2,5-diamine]
63 nM | COc1cc2c(cc1Nc1ncc3ccc(N4CC(C(C)(C)O)OC4=O)cc3n1)CN(C)CC2 (racemic) [Compound 3-9, (S and R)-5-(2-hydroxypropan-2-yl)-3-{2-[(6-methoxy-2-meth-yl-1,2,3,4-tetrahydroisoquinolin-7-yl)amino]quinazolin-7-yl}-1,3-oxazolidin-2-one]
45.7 nM | COc1cc2c(cc1Nc1ncc3ccc(-c4cc(C#N)ccc4OC)cc3n1)CNCC2 [Compound 1-63, 4-methoxy-3-{2-[(6-methoxy-1,2,3,4-tetrahydroisoquinolin-7-yl)amino]quinazolin-7-yl}benzonitrile]

From patent publication US20230399341A1, “7-PHENYL SUBSTITUTED 2-AMINOQUINAZOLINE INHIBITORS OF HPK1” (MERCK SHARP & DOHME LLC, priority 2020, published 2023)
